Data reported in patent US6737383B1, “Herbicidal oxadiazolidines” (priority 1999, dated 2004).

Key:
bedstraw = experiment: Test B pre/postemergence bedstraw; format: in vivo, Galium aparine
Method in brief: (§1)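 Response is a visual 0-to-10 score relative to untreated plants, where 0 means no effect and 10 means complete control, taken twelve to sixteen days after application. Treatments went onto soil at planting and onto foliage of 1- to 4-leaf plants, using a surfactant-containing non-phytotoxic solvent.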

sugar beet = experiment: Test B pre/postemergence sugar beet; format: in vivo, Beta vulgaris
Method in brief: as §1

soybean = experiment: Test B pre/postemergence soybean; format: in vivo, Glycine max
Method in brief: as §1

velvetleaf = experiment: Test B pre/postemergence velvetleaf; format: in vivo, Abutilon theophrasti
Method in brief: as §1

crabgrass = experiment: Test B pre/postemergence crabgrass; format: in vivo, Digitaria sanguinalis
Method in brief: as §1

bamyardgrass = experiment: Test B flood test barnyardgrass; format: in vivo, Echinochloa crus-galli
Method in brief: (§2)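 Flood test on plants grown to the 2-leaf stage; treated plants kept in greenhouse twelve to sixteen days, then visually rated against controls on a 0 (no effect) to 10 (complete control) scale.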

surinam grass = experiment: Test B pre/postemergence surinam grass; format: in vivo, Brachiaria decumbens
Method in brief: as §1

corn = experiment: Test B pre/postemergence corn; format: in vivo, Zea mays
Method in brief: as §1

rice = experiment: Test B flood test rice; format: in vivo, Oryza sativa
Method in brief: as §2

purple nutsedge = experiment: Test B pre/postemergence purple nutsedge; format: in vivo, Cyperus rotundus
Method in brief: as §1

blackgrass = experiment: Test B pre/postemergence blackgrass; format: in vivo, Alopecurus myosuroides
Method in brief: as §1

smallflower flatsedge = experiment: Test B flood test smallflower flatsedge; format: in vivo, Cyperus difformis
Method in brief: as §2

pigweed = experiment: Test B pre/postemergence pigweed; format: in vivo, Amaranthus retroflexus
Method in brief: as §1

wild oat = experiment: Test B pre/postemergence wild oat; format: in vivo, Avena fatua
Method in brief: as §1

cocklebur = experiment: Test B pre/postemergence cocklebur; format: in vivo, Xanthium strumarium
Method in brief: as §1

giant foxtail = experiment: Test B pre/postemergence giant foxtail; format: in vivo, Setaria faberii
Method in brief: as §1

[1] = Preemergence, Rate 62 g/ha, scale of 0 to 10 where 0 is no effect and 10 is complete control
[2] = Preemergence, Rate 250 g/ha, scale of 0 to 10 where 0 is no effect and 10 is complete control
[3] = Preemergence, Rate 500 g/ha, scale of 0 to 10 where 0 is no effect and 10 is complete control
[4] = Rate 62 g/ha, Postemergence, scale of 0 to 10 where 0 is no effect and 10 is complete control
[5] = Rate 125 g/ha, Postemergence, scale 0 to 10
[6] = Rate 125 g/ha, Preemergence, scale of 0 to 10 where 0 is no effect and 10 is complete control
[7] = Rate 500 g/ha, Postemergence, scale 0 to 10, 0 no effect, 10 complete control
[8] = Rate 62 g/ha, headed Pre-emergence (flood test species), scale 0 to 10 (0 no effect, 10 complete control)
[9] = Rate 125 g/ha, Pre-emergence, flood test species, scale 0 to 10 where 0 is no effect and 10 is complete control
[10] = Rate 250 g/ha, Pre-emergence, flood-test species, scale 0 to 10, 0 is no effect, 10 is complete control
[11] = Rate 500 g/ha, Pre-emergence, flood test species, scale 0 to 10 (0 no effect, 10 complete control)

For `COc1cc(C)cc(C)c1-n1c(=O)on(C(=O)N(c2ccc(F)cc2F)C(C)C)c1=O` [Compound 223], the “Bedstraw plant response rating” value (bedstraw; [1]) was 0, the “Bedstraw plant response rating” value (bedstraw; [2]) was 0 and the “Plant response rating, Bedstraw” value (bedstraw; [3]) was 3. The “Bedstraw plant response rating” value (bedstraw; [4]) was 3, the “Bedstraw plant response rating” value (bedstraw; [5]) was 3 and the “Bedstraw plant response rating” value (bedstraw; [6]) was 0. For the same compound, the “Plant response rating (0 to 10; 0 is no effect, 10 is complete control), Bedstraw” value (bedstraw; Rate 250 g/ha, Postemergence) was 4, the “Bedstraw plant response rating” value (bedstraw; [7]) was 5 and the “Sugarbeets plant response rating” value (sugar beet; [1]) was 0. The “Sugarbeets plant response rating” value (sugar beet; [2]) was 0, the “Plant response rating, Sugarbeets” value (sugar beet; [3]) was 0 and the “Sugarbeets plant response rating” value (sugar beet; [4]) was 0. For the same compound, the “Sugarbeets plant response rating” value (sugar beet; [5]) was 1, the “Sugarbeets plant response rating” value (sugar beet; [6]) was 0 and the “Plant response rating (0 to 10; 0 is no effect, 10 is complete control), Sugarbeets” value (sugar beet; Rate 250 g/ha, Postemergence) was 2. The “Sugarbeets plant response rating” value (sugar beet; [7]) was 3, the “Soybean plant response rating” value (soybean; [1]) was 0 and the “Soybean plant response rating” value (soybean; [2]) was 0. The “Plant response rating, Soybean” value (soybean; [3]) was 0, the “Soybean plant response rating” value (soybean; [4]) was 3 and the “Soybean plant response rating” value (soybean; [5]) was 3. For the same compound, the “Soybean plant response rating” value (soybean; [6]) was 0, the “Plant response rating (0 to 10; 0 is no effect, 10 is complete control), Soybean” value (soybean; Rate 250 g/ha, Postemergence) was 3 and the “Soybean plant response rating” value (soybean; [7]) was 4. The “Velvetleaf plant response rating” value (velvetleaf; [1]) was 0, the “Velvetleaf plant response rating” value (velvetleaf; [2]) was 0 and the “Plant response rating, Velvetleaf” value (velvetleaf; [3]) was 0. For the same compound, the “Velvetleaf plant response rating” value (velvetleaf; [4]) was 0, the “Velvetleaf plant response rating” value (velvetleaf; [5]) was 0 and the “Velvetleaf plant response rating” value (velvetleaf; [6]) was 0. The “Plant response rating (0 to 10; 0 is no effect, 10 is complete control), Velvetleaf” value (velvetleaf; Rate 250 g/ha, Postemergence) was 2, the “Velvetleaf plant response rating” value (velvetleaf; [7]) was 3 and the “Crabgrass plant response rating” value (crabgrass; [1]) was 4. The “Crabgrass plant response rating” value (crabgrass; [2]) was 7, the “Plant response rating, Crabgrass” value (crabgrass; [3]) was 9 and the “Crabgrass plant response rating” value (crabgrass; [4]) was 0. The “Crabgrass plant response rating” value (crabgrass; [5]) was 0, the “Crabgrass plant response rating” value (crabgrass; [6]) was 6 and the “Plant response rating (0 to 10; 0 is no effect, 10 is complete control), Crabgrass” value (crabgrass; Rate 250 g/ha, Postemergence) was 1. For the same compound, the “Crabgrass plant response rating” value (crabgrass; [7]) was 3, the “Barnyardgrass plant response rating” value (bamyardgrass; [8]) was 0 and the “Barnyardgrass plant response rating” value (bamyardgrass; [9]) was 0. For the same compound, the “Barnyardgrass plant response rating” value (bamyardgrass; [10]) was 0, the “Barnyardgrass plant response rating” value (bamyardgrass; [11]) was 0 and the “B. signalgrass plant response rating” value (surinam grass; [1]) was 0. For the same compound, the “B. signalgrass plant response rating” value (surinam grass; Preemergence, Rate 250 g/ha, scale 0 to 10, 0 is no effect, 10 is complete control) was 3, the “Plant response rating, B. signalgrass” value (surinam grass; [3]) was 4 and the “B. signalgrass plant response rating” value (surinam grass; [4]) was 0. For the same compound, the “B. signalgrass plant response rating” value (surinam grass; Rate 125 g/ha, Postemergence, scale 0 (no effect) to 10 (complete control)) was 0, the “B. signalgrass plant response rating” value (surinam grass; [6]) was 0 and the “Plant response rating (0 to 10; 0 is no effect, 10 is complete control), B. signalgrass” value (surinam grass; Rate 250 g/ha, Postemergence) was 0. The “B. signalgrass plant response rating” value (surinam grass; [7]) was 0, the “Corn plant response rating” value (corn; [1]) was 0 and the “Corn plant response rating” value (corn; [2]) was 0. The “Plant response rating, Corn” value (corn; [3]) was 0, the “Corn plant response rating” value (corn; [4]) was 0 and the “Corn plant response rating” value (corn; [5]) was 0. The “Corn plant response rating” value (corn; [6]) was 0, the “Plant response rating (0 to 10; 0 is no effect, 10 is complete control), Corn” value (corn; Rate 250 g/ha, Postemergence) was 0 and the “Corn plant response rating” value (corn; [7]) was 0. For the same compound, the “Rice plant response rating” value (rice; [8]) was 0, the “Rice plant response rating” value (rice; [9]) was 0 and the “Rice plant response rating” value (rice; [10]) was 0. The “Rice plant response rating” value (rice; [11]) was 0, the “Nutsedge plant response rating” value (purple nutsedge; [1]) was 0 and the “Nutsedge plant response rating” value (purple nutsedge; [4]) was 0. For the same compound, the “Nutsedge plant response rating” value (purple nutsedge; [5]) was 0, the “Nutsedge plant response rating” value (purple nutsedge; [6]) was 0 and the “Plant response rating (0 to 10; 0 is no effect, 10 is complete control), Nutsedge” value (purple nutsedge; Rate 250 g/ha, Postemergence) was 0. For the same compound, the “Nutsedge plant response rating” value (purple nutsedge; [7]) was 0, the “Blackgrass plant response rating” value (blackgrass; [1]) was 0 and the “Blackgrass plant response rating” value (blackgrass; [2]) was 4. The “Plant response rating, Blackgrass” value (blackgrass; [3]) was 5, the “Blackgrass plant response rating” value (blackgrass; [4]) was 0 and the “Blackgrass plant response rating” value (blackgrass; [5]) was 0. For the same compound, the “Blackgrass plant response rating” value (blackgrass; [6]) was 1, the “Plant response rating (0 to 10; 0 is no effect, 10 is complete control), Blackgrass” value (blackgrass; Rate 250 g/ha, Postemergence) was 3 and the “Blackgrass plant response rating” value (blackgrass; [7]) was 1. The “S. Flatsedge plant response rating” value (smallflower flatsedge; [8]) was 0, the “S. Flatsedge plant response rating” value (smallflower flatsedge; [9]) was 0 and the “S. Flatsedge plant response rating” value (smallflower flatsedge; [10]) was 0. For the same compound, the “S. Flatsedge plant response rating” value (smallflower flatsedge; [11]) was 0, the “Redroot pigweed plant response rating” value (pigweed; [1]) was 0 and the “Redroot pigweed plant response rating” value (pigweed; [2]) was 7. For the same compound, the “Plant response rating, Redroot pigweed” value (pigweed; [3]) was 7, the “Redroot pigweed plant response rating” value (pigweed; [4]) was 0 and the “Redroot pigweed plant response rating” value (pigweed; [5]) was 2. The “Redroot pigweed plant response rating” value (pigweed; [6]) was 0, the “Plant response rating (0 to 10; 0 is no effect, 10 is complete control), Redroot pigweed” value (pigweed; Rate 250 g/ha, Postemergence) was 3 and the “Redroot pigweed plant response rating” value (pigweed; [7]) was 5. The “Wild oats plant response rating” value (wild oat; [2]) was 2, the “Plant response rating, Wild oats” value (wild oat; [3]) was 4 and the “Wild oats plant response rating” value (wild oat; [4]) was 0. For the same compound, the “Wild oats plant response rating” value (wild oat; [5]) was 0, the “Wild oats plant response rating” value (wild oat; [6]) was 0 and the “Plant response rating (0 to 10; 0 is no effect, 10 is complete control), Wild oats” value (wild oat; Rate 250 g/ha, Postemergence) was 0. For the same compound, the “Wild oats plant response rating” value (wild oat; [7]) was 2, the “Cocklebur plant response rating” value (cocklebur; [1]) was 0 and the “Cocklebur plant response rating” value (cocklebur; [2]) was 0. The “Plant response rating, Cocklebur” value (cocklebur; [3]) was 0, the “Cocklebur plant response rating” value (cocklebur; [4]) was 0 and the “Cocklebur plant response rating” value (cocklebur; [5]) was 0. For the same compound, the “Cocklebur plant response rating” value (cocklebur; [6]) was 0, the “Plant response rating (0 to 10; 0 is no effect, 10 is complete control), Cocklebur” value (cocklebur; Rate 250 g/ha, Postemergence) was 0 and the “Cocklebur plant response rating” value (cocklebur; [7]) was 2. For the same compound, the “Giant foxtail plant response rating” value (giant foxtail; [1]) was 7, the “Plant response rating, Giant foxtail” value (giant foxtail; [3]) was 9 and the “Giant foxtail plant response rating” value (giant foxtail; [4]) was 0. For the same compound, the “Giant foxtail plant response rating” value (giant foxtail; [5]) was 0, the “Giant foxtail plant response rating” value (giant foxtail; [6]) was 9 and the “Plant response rating (0 to 10; 0 is no effect, 10 is complete control), Giant foxtail” value (giant foxtail; Rate 250 g/ha, Postemergence) was 0. The “Giant foxtail plant response rating” value (giant foxtail; [7]) was 1.
